Experimental data as given in publication PMC8553340, “USP28 deletion and small-molecule inhibition destabilizes c-MYC and elicits regression of squamous cell lung carcinoma” (eLife, 2021).

Target: T1, ubiquitin-specific protease 28 (USP28) (Homo sapiens, UniProt Q96RU2)
T1 construct: endogenous, NCI-H520 cell extracts and intact cells
T1 sequence (Q96RU2 1-1077): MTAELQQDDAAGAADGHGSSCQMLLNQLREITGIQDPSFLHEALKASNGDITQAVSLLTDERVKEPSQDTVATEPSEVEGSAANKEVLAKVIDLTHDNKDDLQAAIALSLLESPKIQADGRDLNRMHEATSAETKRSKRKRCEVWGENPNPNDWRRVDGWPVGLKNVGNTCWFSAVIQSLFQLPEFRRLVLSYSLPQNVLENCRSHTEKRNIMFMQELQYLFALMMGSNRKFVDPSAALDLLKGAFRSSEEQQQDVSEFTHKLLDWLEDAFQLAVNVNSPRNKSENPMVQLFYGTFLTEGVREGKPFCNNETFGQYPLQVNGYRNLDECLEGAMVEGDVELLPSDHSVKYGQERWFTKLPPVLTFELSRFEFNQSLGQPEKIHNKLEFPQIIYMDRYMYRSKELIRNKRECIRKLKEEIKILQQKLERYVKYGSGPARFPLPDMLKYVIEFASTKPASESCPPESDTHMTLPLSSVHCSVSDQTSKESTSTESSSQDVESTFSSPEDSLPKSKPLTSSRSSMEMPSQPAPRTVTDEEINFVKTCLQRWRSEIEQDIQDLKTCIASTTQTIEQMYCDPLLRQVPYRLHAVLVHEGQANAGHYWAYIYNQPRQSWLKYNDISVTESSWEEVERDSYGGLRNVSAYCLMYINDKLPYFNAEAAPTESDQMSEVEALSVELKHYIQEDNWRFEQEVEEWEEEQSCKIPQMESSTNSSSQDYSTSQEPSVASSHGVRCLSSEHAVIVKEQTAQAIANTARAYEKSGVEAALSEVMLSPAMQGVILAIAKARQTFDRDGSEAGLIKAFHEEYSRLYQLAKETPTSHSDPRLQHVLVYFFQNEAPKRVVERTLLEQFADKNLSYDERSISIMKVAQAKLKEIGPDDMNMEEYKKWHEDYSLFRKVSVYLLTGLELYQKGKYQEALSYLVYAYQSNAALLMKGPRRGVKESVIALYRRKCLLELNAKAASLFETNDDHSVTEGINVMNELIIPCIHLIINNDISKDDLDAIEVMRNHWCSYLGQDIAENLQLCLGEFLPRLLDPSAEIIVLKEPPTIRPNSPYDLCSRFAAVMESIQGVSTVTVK
Test: competition with HA-UbPA activity-based probe labelling (Western blot) in NCI-H520 extract and cells; ABPP mass spectrometry
Assay type: biochemical

Cc1ccc2c(N)c(C(=O)N[C@H]3CCc4cc(N5CC6CCC(C5)N6)ccc4C3)sc2n1 [FT206]
EC50: 300 to 1000 nM
